# Data reported in patent US7074807B2, “Compositions and methods for inducing cell death” (Georgetown University, priority 1998, dated 2006).
# Tests used:
# Type in all cases: cell-based, human
# SAPK/JNK = assay: SAPK/JNK1 activity (GST-cJun phosphorylation); conditions: 10 mM, 2 h, vs tempol or 1% ethanol control
# Experimental: FIGS. 5A, 5B, 5C. Tempo stimulates tyrosine phosphorylation and activity of SAPK. […] 5A. WCLs (1 mg) were immunoprecipitated with agarose-conjugated anti-SAPK antibody, followed by immunoblotting with anti-PY MAb. 5B. In other independent experiments, anti-SAPK immunoprecipitates were first probed with anti-PY MAb (top), and the blot was then reprobed with anti-SAPK antibody (bottom). 5C. […] WCLs were immunoprecipitated with anti-JNK1 antibody, and the JNK1 activity in immunoprecipitates was measured using GST-cJun (˜41 kDa) as a substrate. UT, untreated cells grown overnight in serum-free medium; CONT/Control, cells grown in serum-free medium overnight, and treated with 1% ethanol for 2 h.
# ERK and SAPK/JNK Activities—Whole cell lysates prepared as described above were immunoprecipitated (1 mg) with an agarose conjugated anti-ERK1 antibody or an agarose conjugated anti-JNK1 antibody for 2 h at 4° C. with constant agitation. The immune-complexes were washed 3 times in lysis buffer and once in KBB as mentioned earlier. ERK or JNK activity assay was carried out according to manufacturer's procedures (UBI). […] The radioactive filters were washed and counted as described above. […] The radiolabeled GST-cJun fusion protein was detected by autoradiography.
# DU145 cells = assay: Annexin V apoptosis in prostate cancer cells (5% BCS); conditions: 2.5 mM, 24 hr
# Experimental: (§1) Cells were grown overnight in medium containing 10% BCS in T-25 flasks, switched to medium containing 5% BCS and treated with tempo. Following treatment, cells were washed, trypsinized, and resuspended in […] of 1× binding buffer as described before. […] (9A1–9A3): Cytograms of untreated (9A1); 0.1% ethanol-treated (24 hr) (9A2); and tempo-treated DU145 cells (2.5 mM, 24 hr) (9A3). […] (9B1–9B2), (9C1–9C2), (9D1–9D2): apoptosis (9B1, 9C1, 9D1) and necrosis (9B2, 9C2, […]) in cells treated with tempo (B, 2.5 mM; C, 24 hr; D, doses and times as indicated). Values shown are mean q S.D. of triplicate determination per point in each treatment category.
# (§2) To investigate tempo's effect on prostate cancer cells, human androgen-independent prostate cancer-derived cell lines (DU145 and PC3) were grown to near confluence in 75 cm^2-tissue flasks in Improved Minimum Essential Medium (IMEM) (Cellgro) containing 10% bovine calf serum (BCS) supplemented with 2 mM L-glutamine and 200 IU/ml penicillin and streptomycin mixture in a humidified atmosphere of 5% CO2:95% air at 37° C. Human androgen-dependent prostate cancer-derived cell line (LNCaP) was cultured in RPMI 1640 medium containing 10% BCS and 2 mM L-glutamine. Cells were trypsinized and seeded in equal numbers overnight in 150 mm^2 tissue culture dishes (two dishes per flask) or 25 cm^2 flasks (1×10^6 cells per flask). Cells were treated in medium containing 5% BCS with desired concentration of tempo for various times. Tempo was dissolved in ethanol (0.1%) before use. Control cultures were treated with ethanol (0.1%) for various times. Following treatment, cells were washed 3 times with PBS. […] In LNCaP cells, a relatively higher level of apoptosis was observed (1 mM tempo, 24 hr, approximately 12-fold; 5 mM, 4 hr, approximately 15-fold) (FIGS. 9A1, 9A2, 9A3, 9B1, 9B2, 9C1, 9C2, 9D1, 9D2).
# LNCaP cells = assay: as above
# Experimental: as §1, §2
# PC-3 cells = assay: as above; conditions: 2.5 mM, 24 hr
# Experimental: as §1, §2
# caspase-3 in DU145 cells = assay: Caspase-3 activity assay (DEVD-AFC); conditions: 2.5 mM, 2 hr
# Experimental: (§3) FIG. 10 illustrates the effect of tempo on caspase-3 activity in prostate cancer cell lines. Cells were treated with 2.5 mM tempo for indicated times in duplicate or triplicate as described in legend to FIG. 2. Representative data from one experiment are shown. Experiments was repeated 2–3 times.
# (§4) ApoAlert CPP32 activity/caspase-3 assay kit was used to measure caspase-3 activity in cells according to manufacturer's instructions (Clontech). Briefly, after tempo treatment, cells were washed 3 times with ice-cold PBS and lysed in Clontech cell lysis buffer for 10 min on ice followed by microcentrifugation at 15,000× g for 5 min. Whole cell lysate (50 ug) was incubated for 1 h at 37° C. in caspase-3 reaction mixture containing 10 mM DTT in 2× reaction buffer, 50 uM CPP32 substrate, DEVD-AFC. The amounts of 7-amino-4 trifluoromethyl coumarin (AFC) released were detected by spectrofluorometer (Hitachi F4500) with excitation at 400 nm and emission at 505 nm.
# caspase-3 in LNCaP cells = assay: Caspase-3 activity assay (DEVD-AFC); conditions: 2.5 mM, 24 hr
# Experimental: as §3, §4
# caspase-3 in PC3 cells = assay: Caspase-3 activity assay (DEVD-AFC); conditions: 2.5 mM, 24 hr
# Experimental: as §3, §4
smiles,measurement,setting,value
"CC1(C)CCCC(C)(C)N1[O] [tempo, 2,2,6,6-tetramethylpiperidine-N-oxyl]",increase in the phosphorylated GST-cJun fusion protein,SAPK/JNK,3–7 fold
same,increase in the number of apoptotic cells,DU145 cells,approximately 3.4 fold
same,level of apoptosis (increase),"LNCaP cells; 1 mM, 24 hr",approximately 12 fold
same,level of apoptosis (increase),"LNCaP cells; 5 mM, 4 hr",approximately 15 fold
same,increase in the number of apoptotic cells,PC-3 cells,~6.7 fold
same,level of caspase-3 activity,caspase-3 in DU145 cells,~170%
same,increase in caspase activity,caspase-3 in LNCaP cells,~12 fold
same,level of caspase-3 activity,caspase-3 in PC3 cells,~200%
